These results are taken from patent US7713970B2, “Substituted cyclic urea derivatives” (FMC Corporation, priority 2004, dated 2010).

This data set has as its system tobacco budworm (Heliothis virescens [Fabricius]). Kind of data set: surface-treated diet test against tobacco budworm. The data set is classed as in vivo. As to conditions: 0.25 millimolar candidate insecticide on the surface of the diet, second instar larvae, five-day exposure; for Percent Mortality: compared to total number of insects infested; for Percent Growth Inhibition: inhibition of insect weight relative to untreated controls. Here is the method: Candidate insecticides were evaluated for activity against the tobacco budworm (Heliothis virescens [Fabricius]) in a surface-treated diet test.
In this test one mL of molten (65-70° C.) wheat germ-based artificial diet was pipetted into each well of a four by six (24 well) multi-well plate (ID# 430345-15.5 mm dia.×17.6 mm deep; Corning Costar Corp., One Alewife Center, Cambridge, Mass. 02140). The diet was allowed to cool to ambient temperature before treatment with candidate insecticide.
For a determination of insecticidal activity, solutions of the candidate insecticides were prepared for testing using a Packard 204DT Multiprobe® Robotic System (Packard Instrument Company, 800 Research Parkway, Meriden, Conn. 06450), in which the robot first diluted a standard 50 millimolar DMSO solution of candidate insecticide with a 1:1 water/acetone solution (V/V) in a ratio of 1:7 stock solution to water/acetone. The robot subsequently pipetted 40 microliters of the so-prepared solution onto the surface of the diet in each of three wells in the 24 multi-well plate. The process was repeated with solutions of seven other candidate insecticides. Once treated, the contents of the multi-well plate were allowed to dry, leaving 0.25 millimoles of candidate insecticide on the surface of the diet, or a concentration of 0.25 millimolar. Appropriate untreated controls containing only DMSO on the diet surface were also included in this test.
For evaluations of the insecticidal activity of a candidate insecticide at varying rates of application, the test was established as described above using sub-multiples of the standard 50 millimolar DMSO solution of candidate insecticide. For example, the standard 50 millimolar solution was diluted by the robot with DMSO to give 5, 0.5, 0.05, 0.005, 0.0005 millimolar, or more dilute solutions of the candidate insecticide. In these evaluations there were six replicates of each rate of application placed on the surface of the diet in the 24 multi-well plate, for a total of four rates of application of candidate insecticide in each plate.
In each well of the test plate was placed one second instar tobacco budworm larvea, each weighing approximately five milligrams. After the larvae were placed in each well, the plate was sealed with clear polyfilm adhesive tape. The tape over each well was perforated to ensure an adequate air supply. The plates were then held in a growth chamber at 25° C. and 60% relative humidity for five days (light 14 hours/day).
After the five-day exposure period insecticidal activity for each rate of application of candidate insecticide was assessed as percent inhibition of insect weight relative to the weight of insects from untreated controls, and percent mortality when compared to the total number of insects infested.

Take `O=c1n(CCCCOc2c(Cl)cc(OCC=C(Cl)Cl)cc2Cl)nnn1-c1cc(Cl)cc(Cl)c1` [Compound 299]: the “Percent Mortality” value came to 100% and the “Percent Growth Inhibition” value was 100%.

As to `O=c1cnn(-c2ccc(Cl)cc2)c(=O)n1CCCCOc1c(Cl)cc(OCC=C(Cl)Cl)cc1Cl` [Compound 651], the “Percent Mortality” value is reported as 100% and the “Percent Growth Inhibition” value amounted to 100%.

For `O=c1n(CCCCOc2c(Cl)cc(OCC=C(Cl)Cl)cc2Cl)nnn1Cc1ccc(Cl)c(Cl)c1` [Compound 520], the “Percent Mortality” value amounted to 0% and the “Percent Growth Inhibition” value worked out at 58%.

For the molecule `COc1cc(-n2ncc(=O)n(CCCCOc3c(Cl)cc(OCC=C(Cl)Cl)cc3Cl)c2=O)ccc1Cl` [Compound 654], the “Percent Mortality” value was 100% and the “Percent Growth Inhibition” value came out at 100%.

With `O=c1n(CCCCOc2c(Cl)cc(OCC=C(Cl)Cl)cc2Cl)nnn1Cc1cccc(Cl)c1` [Compound 514], the “Percent Mortality” value is 100% and the “Percent Growth Inhibition” value was 100%.

In the case of `CC(C)(C)c1ccc(-n2ncn(CCCCOc3c(Cl)cc(OCC=C(Cl)Cl)cc3Cl)c2=O)cc1` [Compound 83], the “Percent Mortality” value was found to be 100% and the “Percent Growth Inhibition” value was found to be 100%.

For `O=C1CN(CCCCOc2c(Cl)cc(OCC=C(Cl)Cl)cc2Cl)C(=O)N1c1ccc(Cl)cc1` [Compound 576], the “Percent Mortality” value is 100% and the “Percent Growth Inhibition” value is 100%.

In the case of `O=c1n(CCCCOc2cc(Cl)c(OCC=C(Cl)Cl)c(Cl)c2)nnn1-c1cccc(Cl)c1` [Compound 661], the “Percent Mortality” value was found to be 100% and the “Percent Growth Inhibition” value stood at 100%.

As for `Cc1nn(-c2ccccc2)c(=O)n1CCCCOc1c(Cl)cc(OCC=C(Cl)Cl)cc1Cl` [Compound 110], the “Percent Mortality” value is 100% and the “Percent Growth Inhibition” value came to 100%.

For the molecule `O=c1cnn(-c2cc(Cl)cc(Cl)c2)c(=O)n1CCCCOc1c(Cl)cc(OCC=C(Cl)Cl)cc1Cl` [Compound 649], the “Percent Mortality” value was 100% and the “Percent Growth Inhibition” value is on record as 100%.

Take `O=c1n(CCCCOc2c(Cl)cc(OCC=C(Cl)Cl)cc2Cl)nnn1Cc1cc(Cl)cc(Cl)c1` [Compound 521]: the “Percent Mortality” value is on record as 100% and the “Percent Growth Inhibition” value came out at 100%.

As for `Cc1nn(-c2ccccc2F)c(=O)n1CCCCOc1c(Cl)cc(OCC=C(Cl)Cl)cc1Cl` [Compound 114], the “Percent Mortality” value is given as 100% and the “Percent Growth Inhibition” value stood at 100%.

`O=c1n(Cc2ccc(C(F)(F)F)cc2)cnn1CCOc1c(Cl)cc(OCC=C(Cl)Cl)cc1Cl` [Compound 548]: the “Percent Mortality” value is 100% and the “Percent Growth Inhibition” value turned out to be 100%.

For the molecule `O=c1n(CCOc2c(Cl)cc(OCC=C(Cl)Cl)cc2Cl)cnn1-c1ccc(C(F)(F)F)cc1` [Compound 105], the “Percent Mortality” value came to 100% and the “Percent Growth Inhibition” value is 100%.

As to `O=c1n(CCCCOc2c(Cl)cc(OCC=C(Cl)Cl)cc2Cl)nnn1Cc1ccc(Cl)cc1Cl` [Compound 517], the “Percent Mortality” value was 100% and the “Percent Growth Inhibition” value worked out at 100%.

With `Cc1nn(-c2ccc(C(C)(C)C)cc2)c(=O)n1CCCCOc1c(Cl)cc(OCC=C(Cl)Cl)cc1Cl` [Compound 125], the “Percent Mortality” value stood at 100% and the “Percent Growth Inhibition” value came to 100%.

As for `COc1ccc(-n2ncc(=O)n(CCCCOc3c(Cl)cc(OCC=C(Cl)Cl)cc3Cl)c2=O)cc1` [Compound 655], the “Percent Mortality” value is 100% and the “Percent Growth Inhibition” value is 100%.

For `O=c1n(CCCCOc2c(Cl)cc(OCC=C(Cl)Cl)cc2Cl)nnn1-c1ccc(Cl)c(Cl)c1` [Compound 306], the “Percent Mortality” value was found to be 100% and the “Percent Growth Inhibition” value is 100%.

In the case of `O=c1n(CCCCOc2c(Cl)cc(OCC=C(Cl)Cl)cc2Cl)cnn1-c1ccc(Cl)cc1` [Compound 91], the “Percent Mortality” value was determined as 100% and the “Percent Growth Inhibition” value came to 100%.

As for `O=c1n(CCCCOc2c(Cl)cc(OCC=C(Cl)Cl)cc2Cl)cnn1-c1ccc(OC(F)(F)F)cc1` [Compound 97], the “Percent Mortality” value came to 100% and the “Percent Growth Inhibition” value was 100%.

Regarding `O=C1C(=O)N(c2ccc(Cl)cc2)C(=O)N1CCCCOc1c(Cl)cc(OCC=C(Cl)Cl)cc1Cl` [Compound 613], the “Percent Mortality” value is 100% and the “Percent Growth Inhibition” value is reported as 100%.

Consider `O=c1n(CCCCOc2c(Cl)cc(OCC=C(Cl)Cl)cc2Cl)cnn1-c1ccccc1` [Compound 94], for which the “Percent Mortality” value is given as 100% and the “Percent Growth Inhibition” value worked out at 100%.

Regarding `O=c1n(CCCCOc2c(Cl)cc(OCC=C(Cl)Cl)cc2Cl)cnn1-c1ccccc1Cl` [Compound 92], the “Percent Mortality” value amounted to 100% and the “Percent Growth Inhibition” value was 100%.

In the case of `O=c1cnn(-c2ccc(Cl)cc2Cl)c(=O)n1CCCCOc1c(Cl)cc(OCC=C(Cl)Cl)cc1Cl` [Compound 648], the “Percent Mortality” value turned out to be 100% and the “Percent Growth Inhibition” value was 100%.

Take `O=c1cnn(-c2ccccc2Cl)c(=O)n1CCCCOc1c(Cl)cc(OCC=C(Cl)Cl)cc1Cl` [Compound 652]: the “Percent Mortality” value was 100% and the “Percent Growth Inhibition” value came to 100%.

Turning to `N#Cc1ccc(-n2ncn(CCCCOc3c(Cl)cc(OCC=C(Cl)Cl)cc3Cl)c2=O)cc1` [Compound 89], the “Percent Mortality” value turned out to be 100% and the “Percent Growth Inhibition” value came out at 100%.

As for `O=c1n(CCCCOc2c(Cl)cc(OCC=C(Cl)Cl)cc2Cl)nnn1-c1ccccc1` [Compound 307], the “Percent Mortality” value stood at 100% and the “Percent Growth Inhibition” value worked out at 100%.

`O=c1n(CCCCOc2c(Cl)cc(OCC=C(Cl)Cl)cc2Cl)cnn1-c1ccc([N+](=O)[O-])cc1` [Compound 93]: the “Percent Mortality” value was found to be 100% and the “Percent Growth Inhibition” value stood at 100%.

Regarding `O=c1n(CCCCOc2c(Cl)cc(OCC=C(Cl)Cl)cc2Cl)nnn1-c1ccc(OC(F)(F)F)cc1` [Compound 303], the “Percent Mortality” value is recorded as 100% and the “Percent Growth Inhibition” value is 100%.

In the case of `CC(C)(C)c1ccc(-n2nnn(CCCCOc3c(Cl)cc(OCC=C(Cl)Cl)cc3Cl)c2=O)cc1` [Compound 291], the “Percent Mortality” value is reported as 100% and the “Percent Growth Inhibition” value is listed as 100%.

Take `Cc1cc(-n2ncn(CCCCOc3c(Cl)cc(OCC=C(Cl)Cl)cc3Cl)c2=O)ccc1Cl` [Compound 88]: the “Percent Mortality” value is 100% and the “Percent Growth Inhibition” value was 100%.

Consider `O=c1n(CCCCOc2c(Cl)cc(OCC=C(Cl)Cl)cc2Cl)nnn1Cc1ccc(Cl)cc1` [Compound 515], for which the “Percent Mortality” value was determined as 100% and the “Percent Growth Inhibition” value was 100%.

Take `O=c1n(CCCCOc2c(Cl)cc(OCC=C(Cl)Cl)cc2Cl)cnn1-c1cc(F)cc(F)c1` [Compound 87]: the “Percent Mortality” value is on record as 100% and the “Percent Growth Inhibition” value was determined as 100%.

As to `O=c1cnn(-c2ccc(OC(F)F)cc2)c(=O)n1CCCCOc1c(Cl)cc(OCC=C(Cl)Cl)cc1Cl` [Compound 656], the “Percent Mortality” value came out at 100% and the “Percent Growth Inhibition” value was 100%.

On to `Cc1nn(-c2ccc(C(F)(F)F)cc2)c(=O)n1CCCCOc1c(Cl)cc(OCC=C(Cl)Cl)cc1Cl` [Compound 131], for which the “Percent Mortality” value is reported as 100% and the “Percent Growth Inhibition” value stood at 100%.

Consider `O=c1n(CCCOc2c(Cl)cc(OCC=C(Cl)Cl)cc2Cl)nnn1-c1cccc(Cl)c1` [Compound 309], for which the “Percent Mortality” value stood at 100% and the “Percent Growth Inhibition” value is 100%.

Consider `Cc1nn(-c2ccc(S(=O)(=O)C(F)F)cc2)c(=O)n1CCCCOc1c(Cl)cc(OCC=C(Cl)Cl)cc1Cl` [Compound 135], for which the “Percent Mortality” value is recorded as 100% and the “Percent Growth Inhibition” value turned out to be 100%.

In the case of `CC1(C)Cc2cccc(-n3nnn(CCCCOc4c(Cl)cc(OCC=C(Cl)Cl)cc4Cl)c3=O)c2O1` [Compound 335], the “Percent Mortality” value amounted to 100% and the “Percent Growth Inhibition” value is 100%.

`O=c1n(CCCCOc2c(Cl)cc(OCC=C(Cl)Cl)cc2Cl)nnn1-c1cccc(C(F)(F)F)c1` [Compound 304]: the “Percent Mortality” value worked out at 100% and the “Percent Growth Inhibition” value was 100%.
